Experimental data published in patent US20250230165A1, “HETEROCYCLIC COMPOUNDS FOR USE IN THE TREATMENT OF CANCER” (ARTIOS PHARMA LIMITED, priority 2021, published 2025).

biological target: T1, Human Polθ polymerase domain (aa1820-2590) (Homo sapiens, UniProt O75417); assay: Polθ Polymerase Domain Kinact/KI Assay (PicoGreen); format: biochemical; settings: 0.8 nM Polθ, 100 nM DNA substrate, kobs vs [I] fit for 2-step covalent inhibitor
T1 construct: Human Polθ polymerase domain (aa1820-2590) was expressed in E. coli; made in house; host or cells: E. coli
T1 sequence (O75417 1820-2590): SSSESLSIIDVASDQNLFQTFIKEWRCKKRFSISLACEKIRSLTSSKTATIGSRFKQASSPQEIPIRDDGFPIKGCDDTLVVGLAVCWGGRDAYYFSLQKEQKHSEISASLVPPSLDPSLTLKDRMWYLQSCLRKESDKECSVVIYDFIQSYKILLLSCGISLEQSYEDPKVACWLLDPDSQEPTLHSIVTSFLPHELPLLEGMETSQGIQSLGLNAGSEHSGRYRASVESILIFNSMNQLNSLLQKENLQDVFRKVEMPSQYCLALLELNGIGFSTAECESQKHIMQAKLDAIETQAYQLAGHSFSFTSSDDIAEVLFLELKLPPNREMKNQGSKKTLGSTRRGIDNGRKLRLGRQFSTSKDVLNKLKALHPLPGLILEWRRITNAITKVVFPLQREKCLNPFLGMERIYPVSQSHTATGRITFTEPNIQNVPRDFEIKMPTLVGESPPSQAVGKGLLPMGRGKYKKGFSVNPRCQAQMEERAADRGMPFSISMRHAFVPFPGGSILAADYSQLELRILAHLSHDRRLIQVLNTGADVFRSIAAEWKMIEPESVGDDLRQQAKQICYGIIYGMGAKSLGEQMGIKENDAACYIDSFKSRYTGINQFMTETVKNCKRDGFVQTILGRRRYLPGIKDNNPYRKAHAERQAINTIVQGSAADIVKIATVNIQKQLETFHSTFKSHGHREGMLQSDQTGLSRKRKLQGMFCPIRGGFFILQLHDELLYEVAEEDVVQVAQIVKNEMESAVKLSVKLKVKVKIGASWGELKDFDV
Procedure, shortened: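 PicoGreen fluorescence read-out of primer extension; progress curves per inhibitor concentration fitted for kobs, then kobs vs [I] fitted to a two-step covalent model to give Kinact and KI. Conditions: 0.8 nM enzyme, 100 nM DNA substrate, […].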

First: C=CC(=O)N1Cc2ccc(CN3C[C@H]4CC(=O)N(c5cc(C(F)(F)F)cc(C)n5)[C@@H]4C(=O)N(C)c4cccc(Cl)c43)nc2C1 [Example 276, (3aR,11aS)-5-((6-acryloyl-6,7-dihydro-5H-pyrrolo[3,4-b]pyridin-2-yl)methyl)-6-chloro-10-methyl-1-(6-methyl-4-(trifluoromethyl)pyridin-2-yl)-1,3a,4,5,10,11a-hexahydro-2H-benzo[b]pyrrolo[2,3-f][1,4]diazocine-2,11(3H)-dione]
Second: C=CC(=O)N1Cc2cnc(CN3C[C@H]4CC(=O)N(c5cc(C(F)(F)F)cc(C)n5)[C@@H]4C(=O)N(C)c4cccc(Cl)c43)nc2C1 [Example 278, (3aR,11aS)-5-((6-acryloyl-6,7-dihydro-5H-pyrrolo[3,4-d]pyrimidin-2-yl)methyl)-6-chloro-10-methyl-1-(6-methyl-4-(trifluoromethyl)pyridin-2-yl)-1,3a,4,5,10,11a-hexahydro-2H-benzo[b]pyrrolo[2,3-f][1,4]diazocine-2,11(3H)-dione]
The Kinact/Kl of the first is 2.3-fold higher: 1.76e+06 M⁻¹ s⁻¹ for the first, 770000 M⁻¹ s⁻¹ for the second.

Going from `C=CC(=O)N1Cc2cnc(CN3C[C@H]4CC(=O)N(c5cc(C(F)(F)F)cc(C)n5)[C@@H]4C(=O)N(C)c4cccc(Cl)c43)cc2C1` [Example 277, (3aR,11aS)-5-((2-acryloyl-2,3-dihydro-1H-pyrrolo[3,4-c]pyridin-6-yl)methyl)-6-chloro-10-methyl-1-(6-methyl-4-(trifluoromethyl)pyridin-2-yl)-1,3a,4,5,10,11a-hexahydro-2H-benzo[b]pyrrolo[2,3-f][1,4]diazocine-2,11(3H)-dione] to `C=CC(=O)N1Cc2nc(CN3C[C@H]4CC(=O)N(c5cc(C(F)(F)F)cc(C)n5)[C@@H]4C(=O)N(C)c4cccc(Cl)c43)sc2C1` [Example 280, (3aR,11aS)-5-((5-acryloyl-5,6-dihydro-4H-pyrrolo[3,4-d]thiazol-2-yl)methyl)-6-chloro-10-methyl-1-(6-methyl-4-(trifluoromethyl)pyridin-2-yl)-1,3a,4,5,10,11a-hexahydro-2H-benzo[b]pyrrolo[2,3-f][1,4]diazocine-2,11(3H)-dione], the Kinact/Kl rises from 80000 M⁻¹ s⁻¹ to 2.54e+06 M⁻¹ s⁻¹ (32-fold).

First: C=CC(=O)N1Cc2nc(CN3C[C@H]4CC(=O)N(c5cc(C(F)(F)F)cc(C)n5)[C@@H]4C(=O)N(C)c4cccc(Cl)c43)n(CC)c2C1 [Example 279, (3aR,11aS)-5-((5-acryloyl-1-ethyl-1,4,5,6-tetrahydropyrrolo[3,4-d]imidazol-2-yl)methyl)-6-chloro-10-methyl-1-(6-methyl-4-(trifluoromethyl)pyridin-2-yl)-1,3a,4,5,10,11a-hexahydro-2H-benzo[b]pyrrolo[2,3-f][1,4]diazocine-2,11(3H)-dione]
Second: C=CC(=O)N1CC(F)(COCCN2C[C@H]3CC(=O)N(c4cc(C(F)(F)F)cc(C)n4)[C@@H]3C(=O)N(C)c3cccc(Cl)c32)C1 [Example 285, (3aR,11aS)-5-(2-((1-acryloyl-3-fluoroazetidin-3-yl)methoxy)ethyl)-6-chloro-10-methyl-1-(6-methyl-4-(trifluoromethyl)pyridin-2-yl)-1,3a,4,5,10,11a-hexahydro-2H-benzo[b]pyrrolo[2,3-f][1,4]diazocine-2,11(3H)-dione]
The Kinact/Kl of the first is 2.2-fold lower: 900000 M⁻¹ s⁻¹ for the first, 1.98e+06 M⁻¹ s⁻¹ for the second.

First: C=CC(=O)N1CCOc2cc(CN3C[C@H]4CC(=O)N(c5cc(C(F)(F)F)cc(C)n5)[C@@H]4C(=O)N(C)c4cccc(Cl)c43)ccc21 [Example 281, (3aR,11aS)-5-((4-acryloyl-3,4-dihydro-2H-benzo[b][1,4]oxazin-7-yl)methyl)-6-chloro-10-methyl-1-(6-methyl-4-(trifluoromethyl)pyridin-2-yl)-1,3a,4,5,10,11a-hexahydro-2H-benzo[b]pyrrolo[2,3-f][1,4]diazocine-2,11(3H)-dione]
Second: C=CC(=O)NC1Cc2ccc(CN3C[C@H]4CC(=O)N(c5cc(C(F)(F)F)cc(C)n5)[C@@H]4C(=O)N(C)c4cccc(Cl)c43)cc2C1 (stereo partly drawn) [Example 286, N-(5-(((3aR,11aS)-6-chloro-10-methyl-1-(6-methyl-4-(trifluoromethyl)pyridin-2-yl)-2,11-dioxo-1,2,3,3a,4,10,11,11a-octahydro-5H-benzo[b]pyrrolo[2,3-f][1,4]diazocin-5-yl)methyl)-2,3-dihydro-1H-inden-2-yl)acrylamide]
The Kinact/Kl of the first is 1.7-fold higher: 1.05e+06 M⁻¹ s⁻¹ for the first, 610000 M⁻¹ s⁻¹ for the second.

`C=CC(=O)Nc1ccc(CN2C[C@H]3CC(=O)N(c4cc(C(F)(F)F)cc(C)n4)[C@@H]3C(=O)N(C)c3cccc(Cl)c32)cn1` [Example 282, N-(5-(((3aR,11aS)-6-chloro-10-methyl-1-(6-methyl-4-(trifluoromethyl)pyridin-2-yl)-2,11-dioxo-1,2,3,3a,4,10,11,11a-octahydro-5H-benzo[b]pyrrolo[2,3-f][1,4]diazocin-5-yl)methyl)pyridin-2-yl)acrylamide] and `C=CC(=O)Nc1ccc(CN2C[C@H]3CC(=O)N(c4cc(C(F)(F)F)cc(C)n4)[C@@H]3C(=O)N(C)c3cccc(Cl)c32)nc1` [Example 283, N-(6-(((3aR,11aS)-6-chloro-10-methyl-1-(6-methyl-4-(trifluoromethyl)pyridin-2-yl)-2,11-dioxo-1,2,3,3a,4,10,11,11a-octahydro-5H-benzo[b]pyrrolo[2,3-f][1,4]diazocin-5-yl)methyl)pyridin-3-yl)acrylamide] are within 1.5-fold of each other in Kinact/Kl: 870000 M⁻¹ s⁻¹ for the first, 950000 M⁻¹ s⁻¹ for the second.

Going from `C=CC(=O)Nc1cnc(CN2C[C@H]3CC(=O)N(c4cc(C(F)(F)F)cc(C)n4)[C@@H]3C(=O)N(C)c3cccc(Cl)c32)nc1` [Example 284, N-(2-(((3aR,11aS)-6-chloro-10-methyl-1-(6-methyl-4-(trifluoromethyl)pyridin-2-yl)-2,11-dioxo-1,2,3,3a,4,10,11,11a-octahydro-5H-benzo[b]pyrrolo[2,3-f][1,4]diazocin-5-yl)methyl)pyrimidin-5-yl)acrylamide] to `C=C(CN(C)C)C(=O)N1CC(CN2C[C@H]3CC(=O)N(c4cc(C(F)(F)F)cc(C)n4)[C@@H]3C(=O)N(C)c3cccc(Cl)c32)C1` [Example 297, (3aR,11aS)-6-chloro-5-((1-(2-((dimethylamino)methyl)acryloyl)azetidin-3-yl)methyl)-10-methyl-1-(6-methyl-4-(trifluoromethyl)pyridin-2-yl)-1,3a,4,5,10,11a-hexahydro-2H-benzo[b]pyrrolo[2,3-f][1,4]diazocine-2,11(3H)-dione], the Kinact/Kl rises from 770000 M⁻¹ s⁻¹ to 1.47e+06 M⁻¹ s⁻¹ (1.9-fold).

First: Cc1cc(C(F)(F)F)cc(N2C(=O)C[C@@H]3CN(CCCC(F)CNC(=O)/C=C/CN(C)C)c4c(Cl)cccc4N(C)C(=O)[C@H]32)n1 (stereo partly drawn) [Example 295, (E)-N-(5-((3aR,11aS)-6-chloro-10-methyl-1-(6-methyl-4-(trifluoromethyl)pyridin-2-yl)-2,11-dioxo-1,2,3,3a,4,10,11,11a-octahydro-5H-benzo[b]pyrrolo[2,3-f][1,4]diazocin-5-yl)-2-fluoropentyl)-4-(dimethylamino)but-2-enamide]
Second: Cc1cc(C(F)(F)F)cc(N2C(=O)C[C@@H]3CN(CCCC(F)(F)CNC(=O)/C=C/CN(C)C)c4c(Cl)cccc4N(C)C(=O)[C@H]32)n1 [Example 296, (E)-N-(5-((3aR,11aS)-6-chloro-10-methyl-1-(6-methyl-4-(trifluoromethyl)pyridin-2-yl)-2,11-dioxo-1,2,3,3a,4,10,11,11a-octahydro-5H-benzo[b]pyrrolo[2,3-f][1,4]diazocin-5-yl)-2,2-difluoropentyl)-4-(dimethylamino)but-2-enamide]
The Kinact/Kl of the first is 1.9-fold lower: 1.62e+06 M⁻¹ s⁻¹ for the first, 3e+06 M⁻¹ s⁻¹ for the second.

Going from `C=C(CN(C)C)C(=O)N1CC(CCN2C[C@H]3CC(=O)N(c4cc(C(F)(F)F)cc(C)n4)[C@@H]3C(=O)N(C)c3cccc(Cl)c32)C1` [Example 298, (3aR,11aS)-6-chloro-5-(2-(1-(2-((dimethylamino)methyl)acryloyl)azetidin-3-yl)ethyl)-10-methyl-1-(6-methyl-4-(trifluoromethyl)pyridin-2-yl)-1,3a,4,5,10,11a-hexahydro-2H-benzo[b]pyrrolo[2,3-f][1,4]diazocine-2,11(3H)-dione] to `C=C(CN(C)C)C(=O)N1CC(CCCN2C[C@H]3CC(=O)N(c4cc(C(F)(F)F)cc(C)n4)[C@@H]3C(=O)N(C)c3cccc(Cl)c32)C1` [Example 299, (3aR,11aS)-6-chloro-5-(3-(1-(2-((dimethylamino)methyl)acryloyl)azetidin-3-yl)propyl)-10-methyl-1-(6-methyl-4-(trifluoromethyl)pyridin-2-yl)-1,3a,4,5,10,11a-hexahydro-2H-benzo[b]pyrrolo[2,3-f][1,4]diazocine-2,11(3H)-dione], the Kinact/Kl falls from 3.64e+06 M⁻¹ s⁻¹ to 1.99e+06 M⁻¹ s⁻¹ (1.8-fold).
